Experimental data published in PMC10540216, “Activity Guided Azide-methyllysine Photo-trapping for Substrate Profiling of Lysine Demethylases” (Journal of the American Chemical Society, 2023).
“Also recorded” adds a separate entry of the source. Where no end group is shown, it is not given here. [ ]: non-standard residue; d: D form. Lys(Me3) = C[N+](C)(C)CCCC[C@H](N)C(=O)O

Columns and labels:
KDM4A-E = experiment: Demethylase activity of KDM4 subfamily on peptide substrates (MALDI-TOF MS), result worded for KDM4A-E together; type: biochemical, human; settings: wild-type KDM4A-E, 10 µM enzyme, 10 µM peptide, 1 mM 2OG, 50 mM Tris pH 8, 37°C, three hours
KDM4A-I71AzF = experiment: CASI: photo-crosslinking with HEK293T cell extracts, StrepTactin enrichment and LC-MS/MS proteomics; type: binding, human; settings: sheet "Final results but with 0.01";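 also: lysates from HEK293T cells pretreated with a KDM4 inhibitor to raise proteome methylation, affinity-purified after ±UV, gel-resolved, trypsin-digested, with exclusive unique peptides per protein averaged per condition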

Substance	demethylation by KDM4A-E (KDM4A-E)	Fold change (+UV/-UV) (KDM4A-I71AzF)
AEVTRTAR[Lys(Me3)]QSAQKRVL [compound 16, Nup107-K25me3 peptide]	demethylated by multiple KDM4s; also recorded: robust demethylation	–
ALMLENLQ[Lys(Me3)]HSTPHAAF [compound 9, ACINUS-K113me3 peptide]	failed to undergo demethylation by KDM4A-E	–
ATPB_HUMAN	–	0.5789
BRE1A_HUMAN	–	0.1667
BRE1B_HUMAN	–	0.25
CCAR2_HUMAN	–	0.75
CHD4_HUMAN	–	0.3333
CLH1_HUMAN	–	1
CLPX_HUMAN	–	1.5
CMC2_HUMAN	–	0.5
COR1C_HUMAN	–	0
DESP_HUMAN	–	0.2222
DHE3_HUMAN	–	1.727
DHSA_HUMAN	–	1
DHX9_HUMAN	–	0.7895
DNMT1_HUMAN	–	0
DOCK7_HUMAN	–	0.8
ECHA_HUMAN	–	1
ENPL_HUMAN	–	1.25
ESYT1_HUMAN	–	1
FAS_HUMAN	–	0.3889
FILA2_HUMAN	–	0.75
FLNA_HUMAN	–	0.3571
FNRMPIAR[Lys(Me3)]IIKDGEQH [compound 8, AIFM1-K590me3 peptide]	failed to undergo demethylation; also recorded: not recognized as KDM4 substrates	–
FTO_HUMAN	–	1

Substance	demethylation by KDM4A-E (KDM4A-E)	Fold change (+UV/-UV) (KDM4A-I71AzF)
G3BP1_HUMAN	–	0
G3P_HUMAN	–	0.5
GGATSSAR[Lys(Me3)]NRWDEPTK [compound 12, SF3B1-K290me3 peptide]	failed to undergo demethylation; also recorded: not recognized as KDM4 substrates	–
GRP75_HUMAN	–	0.7931
GRP78_HUMAN	–	0.5556
GUAA_HUMAN	–	0.6364
H12_HUMAN	–	700
HEAT1_HUMAN	–	0
HNRPK_HUMAN	–	1.273
HNRPU_HUMAN	–	0.6
HORN_HUMAN	–	0
HS90B_HUMAN	–	0.75
HSP7C_HUMAN	–	0.7407
HSP71_HUMAN	–	0.6154
I2BP2_HUMAN	–	0.3333
IF4A1_HUMAN	–	200
IF4G1_HUMAN	–	0
INT3_HUMAN	–	2
K2C4_HUMAN	–	10
KCRU_HUMAN	–	200
KGPDEAKI[Lys(Me3)]ALLERTGY [compound 11, hnRNPQ-K125me3 peptide]	failed to undergo demethylation by KDM4A-E; also recorded: not recognized as KDM4 substrates	–
KPYM_HUMAN	–	1.667
KRT82_HUMAN	–	200
LAMP2_HUMAN	–	2
MAOM_HUMAN	–	1.714

Substance	demethylation by KDM4A-E (KDM4A-E)	Fold change (+UV/-UV) (KDM4A-I71AzF)
MCM7_HUMAN	–	0.3333
MPRI_HUMAN	–	0
MPSASASR[Lys(Me3)]SQEKPREI [compound 14, SYDC-K9me3 peptide]	not recognized as KDM4 substrates	–
MSH6_HUMAN	–	0.5
MYH9_HUMAN	–	0
NU205_HUMAN	–	0.6667
NU214_HUMAN	–	2
NUMA1_HUMAN	–	0
PABP1_HUMAN	–	0.8571
PO210_HUMAN	–	0.1538
PRKDC_HUMAN	–	0.5
PRP8_HUMAN	–	0.32
PTBP1_HUMAN	–	1.2
PYR1_HUMAN	–	0.125
RBM25_HUMAN	–	0
RBP56_HUMAN	–	1
RIF1_HUMAN	–	1
RRP5_HUMAN	–	0
RSASSNSR[Lys(Me3)]SLSPGVSR [compound 10, Acinus-K654me3 peptide]	demethylated by multiple KDM4s; also recorded: robust demethylation	–
RU17_HUMAN	–	1
SCRIB_HUMAN	–	3
SMCA5_HUMAN	–	0
SP16H_HUMAN	–	0.2857
SPTN1_HUMAN	–	0
SRAHSSHLKme3SKKGQSTS [compound 18, P53-K370me3 peptide]	failed to undergo demethylation by KDM4A-E	–

Substance	demethylation by KDM4A-E (KDM4A-E)	Fold change (+UV/-UV) (KDM4A-I71AzF)
SSRP1_HUMAN	–	0
SYEP_HUMAN	–	0.6667
SYNM_HUMAN	–	1
TBA1B_HUMAN	–	0.8182
TCPA_HUMAN	–	2
TCPE_HUMAN	–	0.3333
TCPG_HUMAN	–	4
TCPH_HUMAN	–	1.333
TCPZ_HUMAN	–	1
TERA_HUMAN	–	1.125
TLN1_HUMAN	–	0
TPR_HUMAN	–	0.6212
U5S1_HUMAN	–	0.6
U520_HUMAN	–	0.6129
UGGG1_HUMAN	–	1
VIME_HUMAN	–	0.875
WENTLHTL[Lys(Me3)]QRQLTSYV [compound 17, NUP107-K305me3 peptide]	failed to undergo demethylation by KDM4A-E	–
XRCC5_HUMAN	–	0.5
XRCC6_HUMAN	–	0.3333
YLPM1_HUMAN	–	0.6923
ZN207_HUMAN	–	1
ZO1_HUMAN	–	1
